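How tested: cells in 96-well plates exposed to compound for 48 hours at five concentrations. Abbreviation: GI50, concentration required for 50% inhibition of growth.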 Active and inactive are the calls of the source. Rule as the data show it: active = GI50 up to about 1.1 µM and inactive = higher.
What was measured:
Experiment in all cases: NCI-60 cell line screen, 48 h
OVCAR-8 = tested on: OVCAR-8
RPMI-8226 = tested on: RPMI-8226
T47D = tested on: T47D
SK-MEL-2 = tested on: SK-MEL-2
SR = tested on: SR
SF-539 = tested on: SF-539
U-251 = tested on: U-251
RXF 393 = tested on: RXF 393
IGROV-1 = tested on: IGROV-1
KM12 = tested on: KM12
HOP-62 = tested on: HOP-62
DU-145 = tested on: DU-145
SK-MEL-28 = tested on: SK-MEL-28
SN12C = tested on: SN12C
SF-268 = tested on: SF-268
HCT-116 = tested on: HCT-116
Hs-578T = tested on: Hs-578T
COLO 205 = tested on: COLO 205
HCT-15 = tested on: HCT-15
Malme-3M = tested on: Malme-3M
NCI/ADR-RES = tested on: NCI/ADR-RES
CCRF-CEM = tested on: CCRF-CEM
UACC-257 = tested on: UACC-257
TK-10 = tested on: TK-10
SK-MEL-5 = tested on: SK-MEL-5
CAKI-1 = tested on: CAKI-1
PC-3 = tested on: PC-3
LOX IMVI = tested on: LOX IMVI
K562 = tested on: K562
SNB-75 = tested on: SNB-75
A498 = tested on: A498
MDA-MB-231 = tested on: MDA-MB-231
HT-29 = tested on: HT-29
OVCAR-5 = tested on: OVCAR-5
SF-295 = tested on: SF-295
UO-31 = tested on: UO-31
NCI-H460 = tested on: NCI-H460
MCF7 = tested on: MCF7
EKVX = tested on: EKVX
OVCAR-3 = tested on: OVCAR-3
786-0 = tested on: 786-0
MOLT-4 = tested on: MOLT-4
M14 = tested on: M14
HL-60 = tested on: HL-60
ACHN = tested on: ACHN
UACC-62 = tested on: UACC-62
SW-620 = tested on: SW-620
NCI-H23 = tested on: NCI-H23
A549 = tested on: A549
MDA-MB-435 = tested on: MDA-MB-435
OVCAR-4 = tested on: OVCAR-4
NCI-H226 = tested on: NCI-H226
NCI-H522 = tested on: NCI-H522
HOP-92 = tested on: HOP-92
SNB-19 = tested on: SNB-19
SK-OV-3 = tested on: SK-OV-3

Measured: GI50

O=[N+]([O-])c1cc(Cl)c(Cl)cc1[N+](=O)[O-]
2.85 µM: HCT-15
inactive: OVCAR-8 2.91 µM | RPMI-8226 4.17 µM | T47D 3.24 µM | SK-MEL-2 2.44 µM | SR 1.89 µM | SF-539 2.13 µM | U-251 2 µM | RXF 393 1.63 µM | IGROV-1 1.98 µM | KM12 3.27 µM | HOP-62 2.74 µM | DU-145 2.07 µM | SK-MEL-28 2.64 µM | SN12C 1.91 µM | SF-268 1.81 µM | HCT-116 20.1 µM | Hs-578T 13.9 µM | COLO 205 5.77 µM | Malme-3M 2.74 µM | NCI/ADR-RES 4.18 µM | CCRF-CEM 5.94 µM | UACC-257 2.15 µM | TK-10 3.55 µM | SK-MEL-5 14.6 µM | CAKI-1 2.34 µM | PC-3 1.74 µM | LOX IMVI 2.37 µM | K562 2.43 µM | SNB-75 3.6 µM | A498 18.5 µM | MDA-MB-231 2.25 µM | HT-29 4.16 µM | OVCAR-5 2.51 µM | SF-295 3.08 µM | UO-31 1.93 µM | NCI-H460 3.24 µM | MCF7 2.06 µM | EKVX 2.83 µM | OVCAR-3 1.48 µM | 786-0 2.8 µM | M14 3.51 µM | HL-60 1.9 µM | ACHN 2.56 µM | UACC-62 2.23 µM | SW-620 2.91 µM | NCI-H23 2.14 µM | A549 2.29 µM | MDA-MB-435 4.07 µM | OVCAR-4 2.48 µM | NCI-H226 3.89 µM | NCI-H522 1.87 µM
active: MOLT-4 0.212 µM

COc1ccc2cc3[n+](cc2c1OC)CCc1cc2c(cc1-3)OCO2
inactive: OVCAR-8 16.8 µM | T47D 5.26 µM | SK-MEL-2 23.8 µM | SF-539 52.2 µM | IGROV-1 55.5 µM | KM12 6.11 µM | HOP-92 24.5 µM | DU-145 35.7 µM | SK-MEL-28 14.7 µM | SF-268 6.75 µM | Hs-578T 11.3 µM | Malme-3M 7.6 µM | CCRF-CEM 18.4 µM | TK-10 85.5 µM | SK-MEL-5 4.78 µM | PC-3 20.3 µM | LOX IMVI 59.6 µM | SNB-19 5.69 µM | MDA-MB-231 21.5 µM | HT-29 38.8 µM | NCI-H460 14.9 µM | 786-0 45 µM | M14 39.8 µM | HL-60 18.2 µM | ACHN > 100 µM | UACC-62 16 µM | SW-620 55.3 µM | NCI-H23 7.93 µM | MDA-MB-435 12.6 µM | SK-OV-3 78 µM
